This is an account of results in paper PMC5689068 (ACS chemical neuroscience, 2016).

Where a SMILES comes first, the peptide text is derived from it. [ ]: non-standard residue; d: D form. Oic = O=C(O)[C@@H]1C[C@@H]2CCCC[C@@H]2N1; dTic = O=C(O)[C@H]1Cc2ccccc2CN1; 2Thi = N[C@@H](Cc1cccs1)C(=O)O; Nle = CCCC[C@H](N)C(=O)O; Orn = NCCC[C@H](N)C(=O)O Where only a bound is given, the exact number is not on record here.

The target of the assay is BK receptors. Kind of assay: Radioligand competition binding assay with [3H]BK in rat brain membranes. The note with it: for log[IC50], BK receptors, [3H]BK / IC50: pH 6.8, rat brain membranes, 1 nM [3H]BK; for IC50: read-out: IC50, BK receptors, [3H]BK; for affinity at the BK receptors (in words): D-amino acid substitutions. For orientation: Displacement assays read how much labelled ligand stays bound in the presence of the test substance.

Usually IC50 stands for the concentration that inhibits the measured activity by half. Take `CCCC[C@H](NC(=O)[C@@H](N)Cc1ccccc1)C(=O)N[C@@H](CCCNC(=N)N)C(=O)N[C@H](C(=O)N[C@@H](CCCNC(=N)N)C(=O)N1CCC[C@H]1C(=O)N[C@@H](CCCCN)C(=O)O)[C@@H](C)CC` [compound 2, H-Phe-Nle-Arg-Ile-Arg-Pro-Lys-OH]: the “log[IC50], BK receptors, [3H]BK” value is listed as −6.79 ± 0.10 and the IC50 is 0.16 µM.
For the compound `CCCC[C@H](NC(=O)[C@H](CCCNC(=N)N)NC(=O)[C@H](CC(C)C)NC(=O)[C@@H](N)Cc1ccccc1)C(=O)N[C@@H](CCCNC(=N)N)C(=O)N1CCC[C@H]1C(=O)N[C@@H](CCCCN)C(=O)O` [compound 3, H-Phe-Leu-Arg-Nle-Arg-Pro-Lys-OH] (H-FLR[Nle]RPK-OH), the “log[IC50], BK receptors, [3H]BK” value was −7.05 ± 0.09.
For the compound `CC[C@H](C)[C@H](NC(=O)[C@H](CCCN)NC(=O)[C@H](CC(C)C)NC(=O)[C@@H](N)Cc1ccccc1)C(=O)N[C@@H](CCCN)C(=O)N1CCC[C@H]1C(=O)N[C@@H](CCCN)C(=O)O` [compound 6, H-Phe-Leu-Orn-Ile-Orn-Pro-Orn-OH] (H-FL[Orn]I[Orn]P[Orn]-OH), the “log[IC50], BK receptors, [3H]BK” value is given as −6.29 ± 0.12 and the IC50 is 0.51 µM.
Turning to `CC[C@H](C)[C@H](NC(=O)[C@H](CCCNC(=N)N)NC(=O)[C@H](CC(C)C)NC(=O)[C@@H](N)Cc1ccccc1)C(=O)N[C@@H](CCCNC(=N)N)C(=O)N1Cc2ccccc2C[C@@H]1C(=O)N[C@@H](CCCCN)C(=O)O` [compound 8, H-Phe-Leu-Arg-Ile-Arg-D-Tic-Lys-OH] (H-FLRIR[dTic]K-OH), the half-inhibitory concentration (IC50) is above 10 µM.
Consider `CC[C@H](C)[C@H](NC(=O)[C@H](CCCNC(=N)N)NC(=O)[C@H](CC(C)C)NC(=O)[C@@H](N)Cc1ccccc1)C(=O)N[C@@H](CCCNC(=N)N)C(=O)N1[C@H](C(=O)N[C@@H](CCCCN)C(=O)O)C[C@@H]2CCCC[C@@H]21` [compound 10, H-Phe-Leu-Arg-Ile-Arg-Oic-Lys-OH] (H-FLRIR[Oic]K-OH), for which the “log[IC50], BK receptors, [3H]BK” value is on record as −5.82 ± 0.10 and the half-inhibitory concentration (IC50) came out at 1.5 µM.
As to `CC[C@H](C)[C@H](NC(=O)[C@H](CCCNC(=N)N)NC(=O)[C@H](CC(C)C)NC(=O)[C@@H](N)Cc1ccccc1)C(=O)N[C@@H](CCCNC(=N)N)C(=O)N1CCC[C@@H]1C(=O)N[C@@H](CCCCN)C(=O)O` [compound 12, H-Phe-Leu-Arg-Ile-Arg-D-Pro-Lys-OH], the IC50 is above 10 µM.
With `CC[C@H](C)[C@H](NC(=O)[C@H](CCCNC(=N)N)NC(=O)[C@H](CC(C)C)NC(=O)[C@@H](N)Cc1ccccc1)C(=O)N[C@H](CCCNC(=N)N)C(=O)N1CCC[C@H]1C(=O)N[C@@H](CCCCN)C(=O)O` [compound 13, H-Phe-Leu-Arg-Ile-D-Arg-Pro-Lys-OH], the “log[IC50], BK receptors, [3H]BK” value is listed as −5.23 ± 0.12 and the IC50 was 5.9 µM.
As to `CC[C@H](C)[C@H](NC(=O)[C@@H](CCCNC(=N)N)NC(=O)[C@H](CC(C)C)NC(=O)[C@H](N)Cc1ccccc1)C(=O)N[C@@H](CCCNC(=N)N)C(=O)N1CCC[C@H]1C(=O)N[C@@H](CCCCN)C(=O)O` [compound 18, H-D-Phe-Leu-D-Arg-Ile-Arg-Pro-Lys-OH], the “affinity at the BK receptors (in words)” value is on record as “completely abolished affinity” and the IC50 is above 10 µM.
As for `CC[C@H](C)[C@H](NC(=O)[C@H](CCCNC(=N)N)NC(=O)[C@@H](CC(C)C)NC(=O)[C@H](N)Cc1ccccc1)C(=O)N[C@@H](CCCNC(=N)N)C(=O)N1CCC[C@H]1C(=O)N[C@@H](CCCCN)C(=O)O` [compound 19, H-D-Phe-D-Leu-Arg-Ile-Arg-Pro-Lys-OH], the “affinity at the BK receptors (in words)” value is “completely abolished affinity” and the 50% inhibitory concentration (IC50) was above 10 µM.
Regarding H-FLRIR[2Thi]K-OH [compound 9], the “log[IC50], BK receptors, [3H]BK” value is given as −5.99 ± 0.20 and the half-maximal inhibitory concentration (IC50) stood at 1 µM.
